The text below walks through data of patent publication US20050232902A1, “Injectable bioartificial tissue matrix” (priority 2004, published 2005).

One assay concerns injured myocardium. Kind of assay: Transplantation of hES-derived cardiomyocytes pretreated with ascorbic acid into LAD-ligated heart, graft/infarct ratio. It counts as in vivo, Mice. The text has this: The ascorbic acid-treated cells can become large conglomerates of cells in the injected tissue and thereby can restore major portions of a damaged heart muscle when compared with tissue injected with untreated cells. The proportion of host tissue target organ restored by the grafted cultured cells can be evaluated by a measure termed the “graft/infarct ratio”. The graft/infarct ratio is the ratio of the portion of the ‘dead tissue’ area of the target organ that is restored and/or replaced by transplanted cells of bioartificial tissue. The ratio is determined by dividing a measured area of the restored and/or replaced area by the total measured area of ‘dead tissue’. In addition, a measure or growth and/or of viability can be determined by other methods known in the art. Such methods include, staining of tissue slices with trypan blue to determine extent of dye exclusion, determining nucleic acid uptake of tritiated thymidine into proliferating cells, and staining of tissue slices with toluidin blue to determine extent of dye uptake.
Human ES (hES) cell lines, H1 and H7 (Mummery et al., (2002) supra; Hescheler, B. K. et al. (1997) Cardiovasc. Res. 36:149-162) were initially maintained on feeders in ES medium containing 80% knockout Dulbecco's modified Eagle's medium (KO-DMEM) (Invitrogen, Carlsbad Calif.), 1 mM L-glutamine, 0.1 mM β-mercaptoethanol, 1% nonessential amino acids stock (Invitrogen), 20% Serum Replacement (Invitrogen, Carlsbad Calif.) and 4 ng/ml hbFGF (Invitrogen). The cells were later maintained using feeder-free conditions, herein described. Briefly, feeder-free cultures were passaged by incubation in 200 units/ml collagenase IV for 5-10 minutes at 37° C., dissociated and then seeded onto MATRIGEL-coated plates and maintained in conditioned medium (CM) prepared from primary mouse embryonic fibroblast cultures.
Confluent H7 hES cell cultures were incubated with 0.5 mM EDTA in phosphate-buffered saline (PBS) at 37° C. for 8 min, dissociated, resuspended in CM and replated onto MATRIGEL-coated plates at ˜1×10^6 cells/cm^2. […]

A further assay deals with chondrocytes. Conditions: cited from earlier work.
Assay [1] concerns transplant cell viability and colonization. Kind of assay: Adjuvants compared with ascorbic acid in transplantable cell cultures (Example VI). It counts as in vivo. To be noted: treatment of cells prior to transplantation into a target organ. From the text: In separate experiments, treatment with other adjuvants or treatments were compared with treatment with ascorbic acid. [formula]

Consider `O=C1O[C@H]([C@@H](O)CO)C(O)=C1O` [ascorbic acid], for which the “Increase of graft/infarct ratio compared with untreated cells” value in the assay on injured myocardium (24 hours (treated) vs six hours (untreated, R=0.09:1.0) after transplantation) was 4.6 fold. Besides, the “Effects on colonization and viability of pretreated cells at subsequent time points” value with injured myocardium (7 days, 14 days, and 28 days following transplantation) was “sustained”. The “Area of the tissue populated by transplanted cells” value in the assay with injured myocardium (cells pretreated 24 hrs with 1 mM ascorbic acid, 24 hours following transplantation, total damaged area 536,594 μm^2, FIG. 5) is on record as 215,525 μm^2. For the same compound, in the assay with chondrocytes (2×10^5 cells starting number, 50 μg/ml ascorbic acid, three weeks in vitro), the “Viable cells in the gelled culture” value is “approximately 12×10^5 cells”. The “Increase in cell viability” value with chondrocytes (chondrocytes incubated three weeks in vitro vs absence of ascorbic acid) is reported as “approximately ten-fold”. The “Viable cells after three weeks incubation” value in the assay on chondrocytes (starting number 2×10^6 cells) is 2.6×10^6 cells. Besides, the “Increase in transplant cell viability and colonization” value in assay [1] is “at least 47 fold”.
